Data reported in PMC8446797 (The Journal of Biological Chemistry, 2021).
No end group written: not given here. 5Flu = C-terminal fluorescein

Tests used:
[1] = target: T1, CRIP1a (Rattus norvegicus, UniProt Q5M7A7); test: Fluorescence polarization of fluorescein-labeled peptides binding to CRIP1a; details: 20 nM peptide, CRIP1a 0–250 μM, 30 min, room temperature, 25 mM Hepes pH 7.5, 100 mM NaCl, 5 mM MgCl2, 0.1 mM EDTA, 2 mM TCEP, 10% glycerol, λex 470 nm, λem 530 nm, biological quadruplicates, three separate days
T1 sequence (Q5M7A7 1-164): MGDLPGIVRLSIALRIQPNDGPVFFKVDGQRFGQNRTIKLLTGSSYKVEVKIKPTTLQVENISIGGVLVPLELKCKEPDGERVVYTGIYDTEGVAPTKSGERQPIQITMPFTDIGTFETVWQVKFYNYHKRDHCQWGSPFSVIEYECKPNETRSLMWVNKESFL

[2] = target: N-terminally myristoylated 9-mer peptide mimicking the Gαi N terminus (Myr-…-5Flu); test: fluorescence polarisation

Row | Substance | binding to CRIP1a (in words) [1] | Kd [2] [µM]
1 | 5Flu-SQGKSSC(Farn)-OMe [Rheb-Farn peptide] | inability to bind | –
2 | Cannabinoid receptor interacting protein 1a (from UniProt Q5M7A7 1-164) (natural protein) | – | 21.2
3 | Myr-GTASSLVSPK-5Flu [Myr-NHPH3 peptide] | unable to readily bind | –
4 | nonmyristoylated Gα peptide: corresponding nonmyristoylated peptide used as the control (GCTLSAEDK-5Flu) | unable to readily bind | –
